Data on three compounds can be found in patent publication US10294212B2 (CURADEV PHARMA PRIVATE LTD., priority 2013, dated 2019).

Like-named read-outs stand apart in the source and are kept apart here.

In test [1] the target is Human indoleamine 2,3-dioxygenase-2 (hIDO2) (Homo sapiens (Human), UniProt Q6ZQW0). Kind of test: In-vitro IDO2 enzyme assay. In kind it is biochemical. The source says:
Human indoleamine 2,3-dioxygenase-2 (hIDO2) catalyzes the oxidative cleavage of the pyrrole ring of the indole nucleus of tryptophan to yield N-formylkynurenine which can be converted to kynurenine (KYN) by deformylation. hIDO2 with an C-terminal His tag (Sino Biological Inc (China)) was expressed in E. coli cells and the protein was purified using standard methods well known in the art. Unless otherwise stated, all materials were procured from Sigma Aldrich, Mo., USA.
The assay monitoring the conversion of L-tryptophan to KYN was carried out as follows. hIDO2 (160 nM) was incubated with tryptophan (5000 04) in the presence of ascorbic acid (20 mM), methylene blue (10 04) and catalase (100 μg/mL) in potassium phosphate buffer (100 mM; pH 7.5) at 37 degrees C. for 30 min. The reaction was terminated with 30% trichloroacetic acid (TCA) and further incubated at 65 degrees C. for 15 min to fully convert N-formylkynurenine to KYN. The reaction mixture was then centrifuged to remove sediments, and the KYN in the supernatant was measured by UV-visible absorption spectroscopy at 360 nm using a Waters HPLC system fitted with a C-18 column or by LC/MS/MS (C. J. D Austin et. Al, Amino Acid 2009, 565-578).
Percent inhibition at each concentration of test compounds was determined by determining the decrease in KYN with reference to the reaction control with 1% DMSO vehicle. Data were analyzed using nonlinear regression to generate IC50 values using Graph Pad Prism® 5. Compounds 2 and 184 were tested as described above.

Test [2] has as its system plasma and tumor tissue KYN. The test is described as follows: Tumor penetration: KYN levels in tumor and plasma, CT26/Balb/C tumor model. In kind it is in vivo, Balb/c mice. Particulars: 50 mg/kg oral BID 4 days, vs vehicle; for plasma KYN levels reduced: 2 hours post-dosing. As to the method:
i. Tumor penetration in mice: Tumor penetration of test compounds and KYN levels in tumor and plasma of treated animals were determined in a syngeneic CT26/Balb/C tumor model. Briefly, three to four tumor bearing Balb/c mice (tumor size=150-200 mm^3) were dosed twice a day orally for 4 days with test compound (for e.g., compound 2) at 50 mg/kg formulated in carboxymethyl cellulose (CMC). A vehicle control was included along with the test compounds. Blood samples were collected by retro-orbital bleed or terminal cardiac bleed into tubes containing heparin just before the final dose and at two hours after the final dose. Animals were sacrificed two hours post-final dose. Tumors were harvested and weighed immediately. Tumors were then snap frozen in liquid nitrogen, pulverized and dissolved in homogenization buffer (chilled acetonitrile/water/formic acid (10:90:0.1 v/v/v) to extract test compounds and kynurenine, KYN.
Plasma and tumor tissue KYN levels were reduced in test compound treated animals compared to control vehicle-treated animals (TABLE 7). For example, compounds 2 and 97 each reduced tumor KYN levels by 81%. At 2 hours post-dosing, the plasma KYN levels were reduced by 62% and 67% respectively in the animals treated with compound 2 or 97 compared to the control animals dosed with vehicle alone. The concentration of test compounds in the tumor tissue extracts is determined by LC/MS/MS using an API 4000 or AP15500 Qtrap mass spectrometer.

Test [3] has as its target Human indoleamine 2,3-dioxygenase1 (hIDO1) (Homo sapiens (Human), UniProt P14902). The test is described as follows: In-vitro IDO1 enzyme assay (conversion of L-tryptophan to KYN). The format is biochemical. As to conditions: read-out: IC50 (IDO1) Enz. Put shortly:
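Kynurenine formation quantified by HPLC absorbance at 360 nm or LC/MS/MS after TCA quench and 15 min at 65 °C. Reaction: 10 nM N-His hIDO1, 30 μM tryptophan, ascorbate/methylene blue/catalase, pH 6.5 phosphate buffer, 37 °C for 30 min. Inhibition relative to 1% DMSO vehicle, fitted to IC50.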

For test [4], the system named is CT-26 tumor cells. Kind of test: Combination therapy with Doxorubicin in CT-26 syngeneic tumor model. In kind it is in vivo, Balb/c mice. Particulars: vs DOXO or compound alone. The procedure: Test compounds were evaluated in mice syngeneic tumor models described above for usefulness in combination therapy with a chemotheraputic agent, Doxorubicin (DOXO, Sterling Biotech, India).
Tumor bearing Balb/c mice as described earlier were randomized to receive vehicle alone, test compound alone, DOXO alone, or test compound in combination with DOXO. Animals in DOXO treated arm were injected intraperitoneally on day 1 with DOXO formulated in normal saline (7.5 mg/kg). Five days later, the animals were dosed twice a day orally with either a test compound or vehicle alone during the test period till the end of the experiment. A second smaller dose of DOXO at 3 or 4 mg/Kg was administered to the DOXO-treated animals about 3 weeks after the first DOXO dose. Tumor volume was measured in animals as described above.
Non-limiting examples follow. Test compound 97 was formulated in 40% PEG, 20% PG, 10% DACM in normal saline. From day 5 after the first DOXO dose was administered till the end of the study period on day 35, the animals were dosed twice a day orally with compound 97 (75 mg/kg). Three weeks later, the DOXO-treated animals were injected i.p. with a second dose of DOXO (3 mg/kg). Tumor volume was monitored as described above. Tumor tissues and final blood samples were harvested from the mice 4 hours after the final test compound dose. […]

Where [5] appears, read: IDO2 Enzyme assay, read-out: IC50 values IDO2.
Setting [6] is: IDO2 enzyme assay, read-out: IDO2 IC50.

As a reminder, the IC50 is the concentration needed to halve the response being measured.

Human indoleamine 2,3-dioxygenase-2 (hIDO2), sequence (Q6ZQW0 whole entry): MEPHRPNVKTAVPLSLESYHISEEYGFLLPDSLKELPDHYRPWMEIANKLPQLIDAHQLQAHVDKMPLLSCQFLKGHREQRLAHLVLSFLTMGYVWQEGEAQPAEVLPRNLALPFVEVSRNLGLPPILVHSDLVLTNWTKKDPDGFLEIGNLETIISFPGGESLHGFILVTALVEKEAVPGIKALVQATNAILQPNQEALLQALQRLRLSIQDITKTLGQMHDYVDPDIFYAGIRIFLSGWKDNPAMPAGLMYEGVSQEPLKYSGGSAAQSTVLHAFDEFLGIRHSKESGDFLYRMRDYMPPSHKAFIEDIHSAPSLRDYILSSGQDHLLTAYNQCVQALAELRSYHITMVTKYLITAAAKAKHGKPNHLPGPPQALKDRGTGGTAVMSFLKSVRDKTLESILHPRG
Human indoleamine 2,3-dioxygenase1 (hIDO1), sequence (P14902 whole entry): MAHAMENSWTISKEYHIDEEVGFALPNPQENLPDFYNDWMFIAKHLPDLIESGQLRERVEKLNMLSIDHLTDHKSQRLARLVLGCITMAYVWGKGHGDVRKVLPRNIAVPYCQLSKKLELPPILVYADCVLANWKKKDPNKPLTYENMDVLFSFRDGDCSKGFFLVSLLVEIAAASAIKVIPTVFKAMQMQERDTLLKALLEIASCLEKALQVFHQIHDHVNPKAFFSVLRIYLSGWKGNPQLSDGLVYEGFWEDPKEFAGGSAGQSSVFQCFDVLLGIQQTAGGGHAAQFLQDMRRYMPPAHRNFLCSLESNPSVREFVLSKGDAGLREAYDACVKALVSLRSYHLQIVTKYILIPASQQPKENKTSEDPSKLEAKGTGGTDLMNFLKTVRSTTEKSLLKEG

For `Nc1oc2cnccc2c1Nc1ccc(F)c(Cl)c1` [Compound 2, N^3-(3-Chloro-4-fluoro-phenyl)-furo[2,3-c]pyridine-2,3-diamine], the results for the IC50 in test [1] (setting [5]), in test [1] (setting [6]) and in test [3] were less than 1000 nM, less than 1000 nM and less than 200 nM, respectively. The “tumor KYN levels reduced” value in test [2] is reported as 81%. Moreover, in test [2], the “plasma KYN levels reduced” value was found to be 62%.

For `Nc1oc2c(-c3ccncc3)nccc2c1Nc1ccc(F)c(Cl)c1` [Compound 97, N^3-(3-Chloro-4-fluorophenyl)-7-(pyridin-4-yl)furo[2,3-c]pyridine-2,3-diamine], the “tumor volume, combination with DOXO” value in test [4] (75 mg/kg oral BID + DOXO 7.5 then 3 mg/kg i.p.) is “greater reduction in tumor volume”. For the same compound, in test [2], the “tumor KYN levels reduced” value was 81% and the “plasma KYN levels reduced” value was 67%. The IC50 in test [3] is less than 200 nM.

Consider `Nc1oc2c(-c3ccncc3)nccc2c1Nc1ccc(F)c(F)c1` [Compound 184, N^3-(3,4-difluorophenyl)-7-(pyridin-4-yl)furo[2,3-c]pyridine-2,3-diamine], for which the IC50 in test [1] (setting [5]) is less than 1000 nM; in test [1] (setting [6]) it was less than 1000 nM; in test [3] it was less than 200 nM. Also, the “tumor volume, combination with DOXO” value in test [4] (50 mg/kg oral BID + DOXO) is listed as “greater reduction in tumor volume”.
